Patent US8754068B2, “Modified C-3 betulinic acid derivatives as HIV maturation inhibitors” (priority 2010, dated 2014)

Tested on: recombinant NL4-3 virus (Renilla luciferase in nef, Gag P373S)
Test: HIV cell culture assay (luciferase reporter virus in MT-2 cells)
Assay type: cell-based
Settings: NL43
Experimental: HIV cell culture assay—MT-2 cells and 293T cells were obtained from the NIH AIDS Research and Reference Reagent Program. MT-2 cells were propagated in RPMI 1640 media supplemented with 10% heat inactivated fetal bovine serum, […]. The 293T cells were propagated in DMEM media supplemented with 10% heat inactivated fetal bovine serum (FBS), 100 units/ml penicillin G and 100 μg/ml streptomycin. The proviral DNA clone of NL4-3 was obtained from the NIH AIDS Research and Reference Reagent Program. A recombinant NL4-3 virus, in which a section of the nef gene from NL4-3 was replaced with the Renilla luciferase gene, was used as a reference virus. In addition, residue Gag P373 was converted to P373S. Briefly, the recombinant virus was prepared by transfection of the altered proviral clone of NL4-3. Transfections were performed in 293T cells using LipofectAMINE PLUS from Invitrogen (Carlsbad, Calif.), according to manufacturer's instruction. The virus was titered in MT-2 cells using luciferase enzyme activity as a marker. Luciferase was quantitated using the Dual Luciferase kit from Promega (Madison, Wis.), with modifications to the manufacturer's protocol. The diluted Passive Lysis solution was pre-mixed with the re-suspended Luciferase Assay Reagent and the re-suspended Stop & Glo Substrate (2:1:1 ratio). Fifty (50) μL of the mixture was added to each aspirated well on assay plates and luciferase activity was measured immediately on a Wallac TriLux (Perkin-Elmer). Antiviral activities of inhibitors toward the recombinant virus were quantified by measuring luciferase activity in cells infected for 4-5 days with NLRluc recombinants in the presence serial dilutions of the inhibitor. Table 1 is the key for the data in Table 2.

| SMILES | EC50 [nM] |
| --- | --- |
| C=C(C)[C@@H]1CC[C@]2(CO)CC[C@]3(C)[C@H](CC[C@@H]4[C@@]5(C)CC=C(c6cc(C(=O)O)[nH]n6)C(C)(C)[C@@H]5CC[C@]43C)[C@@H]12 [Example 8, 3-((1R,3aS,5aR,5bR,7aR,11aS,11bR,13aR,13bR)-3a-(hydroxymethyl)-5a,5b,8,8,11a-pentamethyl-1-(prop-1-en-2-yl)-2,3,3a,4,5,5a,5b,6,7,7a,8,11,11a,11b,12,13,13a,13b-octadecahydro-1H-cyclopenta[a]chrysen-9-yl)-1H-pyrazole-5-carboxylic acid] | < 1000 |
| C=C(C)[C@@H]1CC[C@]2(CO)CC[C@]3(C)[C@H](CC[C@@H]4[C@@]5(C)CC=C(c6ccc(C(=O)O)c(Cl)c6)C(C)(C)[C@@H]5CC[C@]43C)[C@@H]12 [Example 5a, 2-chloro-4-((1R,3aS,5aR,5bR,7aR,11aS,11bR,13bR)-3a-(hydroxymethyl)-5a,5b,8,8,11a-pentamethyl-1-(prop-1-en-2-yl)-2,3,3a,4,5,5a,5b,6,7,7a,8,11,11a,11b,12,13,13a,13b-octadecahydro-1H-cyclopenta[a]chrysen-9-yl)benzoic acid] | < 1000 |
| C=C(C)[C@@H]1CC[C@]2(C(=O)O)CC[C@]3(C)[C@H](CC[C@@H]4[C@@]5(C)CC=C(c6ccc(C(=O)OC)cc6)C(C)(C)[C@@H]5CC[C@]43C)[C@@H]12 [Example 7, (1R,3aS,5aR,5bR,7aR,11aS,11bR,13aR,13bR)-9-(4-(methoxycarbonyl)phenyl)-5a,5b,8,8,11a-pentamethyl-1-(prop-1-en-2-yl)-2,3,3a,4,5,5a,5b,6,7,7a,8,11,11a,11b,12,13,13a,13b-octadecahydro-1H-cyclopenta[a]chrysene-3a-carboxylic acid] | > 1000 |
| C=C(C)[C@@H]1CC[C@]2(CO)CC[C@]3(C)[C@H](CC[C@@H]4[C@@]5(C)CC=C(c6ccc(C(=O)O)c(C(=O)O)c6)C(C)(C)[C@@H]5CC[C@]43C)[C@@H]12 [Example 5t, 4-((1R,3aS,5aR,5bR,7aR,11aS,11bR,13aR,13bR)-3a-(hydroxymethyl)-5a,5b,8,8,11a-pentamethyl-1-(prop-1-en-2-yl)-2,3,3a,4,5,5a,5b,6,7,7a,8,11,11a,11b,12,13,13a,13b-octadecahydro-1H-cyclopenta[a]chrysen-9-yl)phthalic acid] | < 1000 |
| C=C(C)[C@@H]1CC[C@]2(C(=O)O)CC[C@]3(C)[C@H](CC[C@@H]4[C@@]5(C)CC=C(c6ccc(O)cc6)C(C)(C)[C@@H]5CC[C@]43C)[C@@H]12 [Example 4f, (1R,3aS,5aR,5bR,7aR,11aS,11bR,13aR,13bR)-9-(4-hydroxyphenyl)-5a,5b,8,8,11a-pentamethyl-1-(prop-1-en-2-yl)-2,3,3a,4,5,5a,5b,6,7,7a,8,11,11a, 11b,12,13,13a,13b-octadecahydro-1H-cyclopenta[a]chrysene-3a-carboxylic acid] | < 1000 |
| C=C(C)[C@@H]1CC[C@]2(CO)CC[C@]3(C)[C@H](CC[C@@H]4[C@@]5(C)CC=C(c6ccc(C(=O)O)c(F)c6)C(C)(C)[C@@H]5CC[C@]43C)[C@@H]12 [Example 5m, 2-fluoro-4-((1R,3aS,5aR,5bR,7aR,11aS,11bR,13aR,13bR)-3a-(hydroxymethyl)-5a,5b,8,8,11a-pentamethyl-1-(prop-1-en-2-yl)-2,3,3a,4,5,5a,5b,6,7,7a,8,11,11a,11b,12,13,13a,13b-octadecahydro-1H-cyclopenta[a]chrysen-9-yl)benzoic acid] | < 1000 |
| C=C(C)[C@@H]1CC[C@]2(C(=O)O)CC[C@]3(C)[C@H](CC[C@@H]4[C@@]5(C)CC=C(c6ccccc6CCC(=O)O)C(C)(C)[C@@H]5CC[C@]43C)[C@@H]12 [Example 4l, (1R,3aS,5aR,5bR,7aR,11aS,11bR,13aR,13bR)-9-(2-(2-carboxyethyl)phenyl)-5a,5b,8,8,11a-pentamethyl-1-(prop-1-en-2-yl)-2,3,3a,4,5,5a,5b,6,7,7a,8,11,11a,11b,12,13,13a,13b-octadecahydro-1H-cyclopenta[a]chrysene-3a-carboxylic acid] | > 1000 |
| C=C(C)[C@@H]1CC[C@]2(C(=O)O)CC[C@]3(C)[C@H](CC[C@@H]4[C@@]5(C)CC=C(c6cccc(S(=O)(=O)NC)c6)C(C)(C)[C@@H]5CC[C@]43C)[C@@H]12 [Example 4e, (1R,3aS,5aR,5bR,7aR,11aS,11bR,13aR,13bR)-5a,5b,8,8,11a-pentamethyl-9-(3-(N-methylsulfamoyl)phenyl)-1-(prop-1-en-2-yl)-2,3,3a,4,5,5a,5b,6,7,7a,8,11,11a,11b,12,13,13a,13b-octadecahydro-1H-cyclopenta[a]chrysene-3a-carboxylic acid] | < 1000 |
| C=C(C)[C@@H]1CC[C@]2(CO)CC[C@]3(C)[C@H](CC[C@@H]4[C@@]5(C)CC=C(c6cc(C(=O)O)no6)C(C)(C)[C@@H]5CC[C@]43C)[C@@H]12 [Example 9, 5-((1R,3aS,5aR,5bR,7aR,11aS,11bR,13aR,13bR)-3a-(hydroxymethyl)-5a,5b,8,8,11a-pentamethyl-1-(prop-1-en-2-yl)-2,3,3a,4,5,5a,5b,6,7,7a,8,11,11a,11b,12,13,13a,13b-octadecahydro-1H-cyclopenta[a]chrysen-9-yl)isoxazole-3-carboxylic acid] | < 1000 |
| C=C(C)[C@@H]1CC[C@]2(CO)CC[C@]3(C)[C@H](CC[C@@H]4[C@@]5(C)CC=C(c6ccc(C(=O)O)c(O)c6)C(C)(C)[C@@H]5CC[C@]43C)[C@@H]12 [Example 5p, 2-hydroxy-4-((1R,3aS,5aR,5bR,7aR,11aS,11bR,13aR,13bR)-3a-(hydroxymethyl)-5a,5b,8,8,11a-pentamethyl-1-(prop-1-en-2-yl)-2,3,3a,4,5,5a,5b,6,7,7a,8,11,11a,11b,12,13,13a,13b-octadecahydro-1H-cyclopenta[a]chrysen-9-yl)benzoic acid] | < 1000 |
| CC(C)[C@@H]1CC[C@]2(CO)CC[C@]3(C)[C@H](CC[C@@H]4[C@@]5(C)CC=C(c6ccc(C(=O)O)cc6)C(C)(C)[C@@H]5CC[C@]43C)[C@@H]12 [Example 10, 4-((1S,3aS,5aR,5bR,7aR,11aS,11bR,13aR,13bR)-3a-(hydroxymethyl)-1-isopropyl-5a,5b,8,8,11a-pentamethyl-2,3,3a,4,5,5a,5b,6,7,7a,8,11,11a,11b,12,13,13a,13b-octadecahydro-1H-cyclopenta[a]chrysen-9-yl)benzoic acid] | < 1000 |
| C=C(C)[C@@H]1CC[C@]2(C(=O)O)CC[C@]3(C)[C@H](CC[C@@H]4[C@@]5(C)CC=C(c6ccc(C(=O)NS(C)(=O)=O)cc6)C(C)(C)[C@@H]5CC[C@]43C)[C@@H]12 [Example 6b, (1R,3aS,5aR,5bR,7aR,11aS,13aR,13bR)-5a,5b,8,8,11a-pentamethyl-9-(4-(methylsulfonylcarbamoyl)phenyl)-1-(prop-1-en-2-yl)-2,3,3a,4,5,5a,5b,6,7,7a,8,11,11a,11b,12,13,13a,13b-octadecahydro-1H-cyclopenta[a]chrysene-3a-carboxylic acid] | < 1000 |
| C=C(C)[C@@H]1CC[C@]2(CO)CC[C@]3(C)[C@H](CC[C@@H]4[C@@]5(C)CC=C(c6ccc(O)cc6C)C(C)(C)[C@@H]5CC[C@]43C)[C@@H]12 [Example 5h, 4-((1R,3aS,5aR,5bR,7aR,11aS,11bR,13aR,13bR)-3a-(hydroxymethyl)-5a,5b,8,8,11a-pentamethyl-1-(prop-1-en-2-yl)-2,3,3a,4,5,5a,5b,6,7,7a,8,11,11a,11b,12,13,13a,13b-octadecahydro-1H-cyclopenta[a]chrysen-9-yl)-3-methylphenol] | > 1000 |
| C[C@H]1[C@H](C)CC[C@]2(C(=O)O)CC[C@]3(C)C(=CC[C@@H]4[C@@]5(C)CC=C(c6ccc(C(=O)O)cc6)C(C)(C)[C@@H]5CC[C@]43C)[C@H]12 [Example 12, (1S,2R,4aS,6aS,6bR,8aR,12aS,12bR,14bS)-10-(4-carboxyphenyl)-1,2,6a,6b,9,9,12a-heptamethyl-1,2,3,4,4a,5,6,6a,6b,7,8,8a,9,12,12a,12b,13,14b-octadecahydropicene-4-a-carboxylic acid] | < 1000 |
| C=C(C)[C@@H]1CC[C@]2(C(=O)O)CC[C@]3(C)[C@H](CC[C@@H]4[C@@]5(C)CC=C(c6cccc(NS(C)(=O)=O)c6)C(C)(C)[C@@H]5CC[C@]43C)[C@@H]12 [Example 4g, (1R,3aS,5aR,5bR,7aR,11aS,11bR,13aR,13bR)-5a,5b,8,8,11a-pentamethyl-9-(3-(methylsulfonamido)phenyl)-1-(prop-1-en-2-yl)-2,3,3a,4,5,5a,5b,6,7,7a,8,11,11a,11b,12,13,13a,13b-octadecahydro-1H-cyclopenta[a]chrysene-3a-carboxylic acid] | > 1000 |
